# Results as given in patent US20090148850A1, “Methods for identifying modulators of P2RY14” (priority 2007, published 2009).
# Columns and labels:
# mouse P2RY14 = biological target: T1, mouse P2RY14 (Mus musculus, UniProt Q9ESG6); test: FLIPR whole cell Ca2+ agonist assay, HEK cells expressing mouse P2RY14 and Gqi5; format: cell-based
# T1 construct: expressed in transfected cells
# T1 sequence (Q9ESG6 1-338): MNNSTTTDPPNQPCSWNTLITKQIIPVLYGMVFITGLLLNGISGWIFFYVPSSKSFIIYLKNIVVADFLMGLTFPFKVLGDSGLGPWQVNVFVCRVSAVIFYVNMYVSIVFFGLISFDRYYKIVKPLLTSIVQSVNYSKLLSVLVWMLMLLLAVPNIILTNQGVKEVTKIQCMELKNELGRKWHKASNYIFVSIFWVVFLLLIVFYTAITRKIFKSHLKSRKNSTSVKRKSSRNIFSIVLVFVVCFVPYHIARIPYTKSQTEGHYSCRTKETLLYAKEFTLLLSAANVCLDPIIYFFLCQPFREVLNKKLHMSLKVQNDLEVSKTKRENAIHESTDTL
# Source text: (§1) Stable HEK clonal cell lines expressing P2RY14 and the chimeric G protein Gqi5 were constructed. The chimeric Gqi5 forces the coupling of P2RY14 through the Gq (calcium) pathway and allows for monitoring of calcium signaling using a calcium binding fluorescent dye and a FLIPR (fluorometric imaging plate reader, MDS Sciex). Vector pCEP4 comprising the chimeric Gqi5 was obtained from Molecular Devices, Sunnyvale, Calif. (Cat. No. RD-PGQI5).
# The nucleic acid encoding the mouse P2RY14 was under the control of the CMV promoter.
# (§2) Cells were grown in DMEM medium containing 25 mM HEPES, pH 7.4 and 10% FBS, 50 units/ml penicillin/50 μg/ml streptomycin, 2 mM glutamine and 1 mM sodium pyruvate at 37° C. in humidified air containing 5% CO2. Two days post-transfection, cells were grown under selection in the DMEM medium as indicated above and supplemented with 200 μg/ml Hygromycin B and 250 μg/ml geneticin.
# (§3) Cells were incubated overnight at 37° C. and 5% CO2 to form a monolayer. On the following day, 30 μl of fluorescent no-wash dye was added to the cell monolayer and the plate was incubated for 60 minutes at 37° C., 5% CO2.
# (§4) For agonist assays, 6.12 μl of 10× agonist solution was added to the cell/dye incubation and Ca^2+ signaling was monitored by FLIPR. For antagonist assays, 250 nl of compound in 100% DMSO was added to cell/dye mixture; following a 20 minute incubation at room temperature, 6.12 μl of 10× agonist solution at EC80 in HBSS containing 20 mM Hepes was added to cells and Ca^2+ signaling was monitored by FLIPR. Quantitation of the % stimulation or inhibition of Ca^2+ signaling by agonist or antagonist, respectively, was calculated using the Max-Min fluorescent signal detected.
# [1] = tested on: HEK cells not expressing P2RY14; test: FLIPR Ca2+ release in HEK cells not expressing P2RY14 (specificity); format: cell-based
# simian P2RY14 = test: Membrane filtration binding assay, simian P2RY14; set-up: species or system chimpanzee; conditions: simian P2RY14 membranes
# Procedure: Membrane preparations were made by N2 cavitation using a Parr unit. […] Cell were Dounce homogenized (size B, 10 strokes) and then added to the cavitation unit. Pressure was adjusted to 800 psi and cells were left under pressure for 30 minutes. Broken cells were released drop by drop and spun at 1000 g for 10 minutes. Supernatent was spun at 160,000 g (rotor type 60 Ti, 40000 rpm for 30 min). Pellet was resuspended in 10 mM HEPES/KOH pH 7.4, 1 mM EDTA in ⅕ the original volume, dounce homogenized (size A, 10 strokes), aliquoted, and frozen at −80° C.
# Binding assays were performed in 10 mM Hepes pH 7.4 (KOH), 5 mM MnCl2, 5 mM MgCl2 buffer. Membranes (10 μg/well for human P2RY14 and 30 μg/well for simian P2RY14) were incubated with 10 nM [5.6-^3H] Uridine 5′-triphosphate (UTP), ammonium salt from Amersham Biosciences (# TRK412) in presence of compounds diluted in DMSO (2% final in assay), in a total volume of 100 μl. 50 minutes (human P2RY14) or 60 minutes (simian) P2RY14) incubations were performed at room temperature with shaking. […] To examine the stability of [^3H]-UTP in the membrane filtration binding assay, 100 ul aliquots of the reaction mixture were extracted at 2, 10, 20, 40, 60 and 90 minutes with 100 uL of cold 80 mM EDTA solution (pH 8) and 200 uL of cold Acetonitrile. After mixing, proteins were precipitated by centrifugation at 13000 rpm for 10 minutes at 4° C. […] After 0.5 min at 10:90 50 mM KH2PO4/750 mM KH2PO4, a gradient was applied in order to increase to 100% 750 mM KH2PO4 at 5 min, after which this composition was maintained for an additional 3 min. Samples were kept at 4° C. prior to HPLC analysis
# P2RY14 = biological target: T2, P2RY14 (Homo sapiens, UniProt Q15391); test: FLIPR whole cell Ca2+ agonist assay, HEK cells expressing human P2RY14 and Gqi5; format: cell-based; set-up: expressed in transfected cells; conditions: HEK cells expressing human P2RY14 and Gqi5, FLIPR
# T2 sequence (Q15391 1-338): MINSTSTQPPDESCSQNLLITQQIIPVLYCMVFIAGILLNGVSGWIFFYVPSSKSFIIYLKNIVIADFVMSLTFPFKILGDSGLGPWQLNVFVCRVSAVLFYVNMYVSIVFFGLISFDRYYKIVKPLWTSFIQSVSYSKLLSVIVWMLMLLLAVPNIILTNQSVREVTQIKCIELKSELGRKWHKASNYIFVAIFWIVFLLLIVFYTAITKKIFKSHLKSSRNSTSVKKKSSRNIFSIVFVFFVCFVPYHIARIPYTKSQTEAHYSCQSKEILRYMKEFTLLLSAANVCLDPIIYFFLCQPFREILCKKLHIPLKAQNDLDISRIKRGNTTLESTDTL
# Source text: as §1
# The human P2RY14 was PCR amplified from the I.M.A.G.E. clone obtained from Invitrogen, Carlsbad, Calif. […] The codon encoding glutamate at position 54 in the wild-type human P2RY14 was changed to code for lysine. […] The PCR reaction was done in two parts. In the first part, the reaction was 5 cycles at 94° C. for 30 seconds, 65° C. for 30 seconds, and 72° C. for 90 seconds. In the second part, the reaction was 25 cycles at 94° C. for 30 seconds, 70° C. for 30 seconds, 72° C. for 90 seconds. The last cycle was followed by 7 minutes at 72° C. The PCR amplified human P2RY14 was digested with KpnI and NotI and cloned into a pcDNA3.1 (+) vector previously digested with KpnI and NotI to place the DNA fragment in the proper orientation downstream of the CMV promoter. The nucleic acid encoding the human P2RY14 was under the control of the CMV promoter.
# as §2, §3, §4
smiles,measurement,setting,value
O=c1ccn([C@@H]2O[C@H](COP(=O)(O)O)[C@@H](O)[C@H]2O)c(=O)[nH]1 [UMP],activation of P2RY14 (Ca2+ signaling),mouse P2RY14,activated
same,Ca2+ release in cells not expressing P2RY14,[1],do not stimulate Ca^2+ release
same,competition for [3H]-UTP/[3H]-UDP binding,simian P2RY14,able to successfully compete
same,Ki,"simian P2RY14; 10 nM radioligand, read-out: Ki, competition for [3H]-UTP/[3H]-UDP binding",~1000 nM
same,activation of P2RY14 (Ca2+ signaling),P2RY14,activated
